Experimental data as given in article PMC5768343, “A natural inhibitor of kidney-type glutaminase: a withanolide from Physalis pubescens with potent anti-tumor activity” (Oncotarget, 2017).
Where two headings read alike, the source gives them in different places.

Tested on: human pancreatic cancer cells (SW1990)
Assay: CCK8 cytotoxicity / proliferation assay, SW1990
Conditions: read-out: IC50 SW1990
Method: The SW1990, HT1080, and A375-S2 human tumor cell lines were obtained from ATCC (Manassas, VA, USA). […] SW1990, HT1080, and LO2 cells were cultured in DMEM medium with 10% fetal bovine serum (FBS). All of these cells were cultured at 37°C in a humidified atmosphere with 5% CO2. To estimate cell viability, cells (5000/well) were separately seeded in 96-well plates for 24 h at 37°C in a 5% CO2 incubator. […] All the experiments were performed in triplicate, and the mean absorbance values were calculated. The IC50 values of the compounds were derived from the mean OD values of the triplicate tests versus the drug concentration curves.
Cell proliferation was assessed by incubating them with Cell Counting Kit-8 reagents (Dojindo, Shanghai, China) for 24 h, 48 h, 72 h, 96 h at 37°C and measuring the absorbance at 450 nm. The experiment was performed in triplicate.

SMILES | IC50 (CCK8, 48 h) [µM] | IC50 (Homo sapiens, SW1990, 48 h) [µM]
O=C(Cc1ccccc1)Nc1nnc(CCSCCc2nnc(NC(=O)Cc3ccccc3)s2)s1 [BPTES, reference compound] | 35.3 ± 0.67 | –
O=C(Cc1cccc(OC(F)(F)F)c1)Nc1ccc(CCCCc2nnc(NC(=O)Cc3ccccn3)s2)nn1 [CB-839, reference compound] | – | 13.1 ± 0.57
